Paper PMC9029089, “1,5-Disubstituted Acylated 2-Amino-4,5-dihydroimidazoles as a New Class of Retinoic Acid Receptor–Related Orphan Receptor (ROR) Inhibitors” (International Journal of Molecular Sciences, 2022)

Columns and labels:
RORγ [1] = target: T1, RORγ (Mus musculus, UniProt P51450); assay: Gal4-RORγ-LBD UAS-luciferase reporter assay in TRex-CHO-K1 cells (doxycycline-stimulated); assay type: cell-based; conditions: library 2520, RORγ cells
T1 construct: mRORγ (Pro-261-end); expressed in transfected cells
T1 sequence (P51450 261-516 limits assumed): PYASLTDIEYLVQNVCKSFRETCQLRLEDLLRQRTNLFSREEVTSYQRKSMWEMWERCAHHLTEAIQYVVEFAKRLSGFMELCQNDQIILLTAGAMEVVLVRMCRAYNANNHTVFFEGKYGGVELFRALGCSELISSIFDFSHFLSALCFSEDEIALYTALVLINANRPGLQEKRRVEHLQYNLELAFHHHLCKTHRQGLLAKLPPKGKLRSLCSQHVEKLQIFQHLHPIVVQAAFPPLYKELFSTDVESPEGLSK

RORγ [2] = target: T1, RORγ; assay: as above; assay type: cell-based; conditions: individual controls 1295.201-307, 5 μg/ml, triplicate
Excerpt: The Gal4-DBD-ROR-LBD fusion proteins were subcloned in the pcDNA4/TO expression vector (Thermo Scientific) and transfected into TRex-CHO-K1 cells (Thermo Scientific) for tetracycline-controlled expression of the corresponding ROR proteins. Transfected cells were selected with hygromycin and Zeocin and individual clones for each of the Gal4-RORγ, Gal4-RORα, and Gal4-RORβ cell lines were isolated using a standard serial dilution protocol. Clones with the highest doxycycline-dependent stimulation of luciferase activity were selected for all functional experiments.
For screening FIU libraries, cells were resuspended in Ham’s F-12 assay medium containing 2% charcoal-treated FBS and no selection drugs. […] Cells were allowed to attach for 2 h, followed by compound treatment and stimulation with 20 ng/mL doxycycline for an additional 16–20 h. Appropriate solvent controls, negative controls with no doxycycline, and blanks with no cells were included in every plate. Prior to measuring luciferase activity, 6 µL of 0.15 mg/mL resazurin (Cayman Chemical) in PBS were added and cells were incubated for 1 h at 37 °C. Fluorescence intensity was detected at 545 nm excitation/590 nm emission using a CLARIOstar reader (BMGLabtech) as a measure of cell viability, to identify any potential cytotoxic effect of test compounds and mixtures.
Luminescence was normalized by the fluorescence intensity and the percentage of inhibition was calculated with respect to control cells stimulated with doxycycline in the presence of solvent control (0.1% DMF). All primary screens with individual compounds were performed in triplicate with a final concentration of 5 µg/mL. […] IC50 values were calculated using GraphPrism (GraphPad software).

% Inhibition at 4 μM (N=3) (RORγ [1]) [%]	Structure (SMILES)	% Inhibition RORγ 5 μg/ml (RORγ [2]) [%]
-33.8	COc1ccc(CC(=O)NC2=NCC(Cc3ccc4ccccc4c3)N2CCC2CC3CCC2C3)cc1 (mixture of isomers) [2520.02]	–
-31.8	CCC(C(=O)NC1=NCC(Cc2ccc3ccccc3c2)N1CC1CCCCC1)c1ccccc1 (mixture of isomers) [2520.03]	–
-40.8	CC(C)C(=O)NC1=NCC(Cc2ccc3ccccc3c2)N1CCC(C)c1ccccc1 (mixture of isomers) [2520.04]	–
-32.2	CCC(C(=O)NC1=NCC(Cc2ccc3ccccc3c2)N1CCC(C)c1ccccc1)c1ccccc1 (mixture of isomers) [2520.07]	–
-7.3	COc1ccc(CC(=O)NC2=NCC(Cc3ccc4ccccc4c3)N2CCC(C)c2ccccc2)cc1 (mixture of isomers) [2520.10]	–
43.0	CCC(C)C1CN=C(NC(=O)Cc2ccc(OC)cc2)N1CCC1CC2CCC1C2 (mixture of isomers) [2520.14]	–
13.3	CCC(C)C1CN=C(NC(=O)C(C)C)N1CCC1CC2CCC1C2 (mixture of isomers) [2520.20]	–
35.9	CCC(C(=O)NC1=NCC(C(C)CC)N1CCC1CC2CCC1C2)c1ccccc1 (mixture of isomers) [2520.23]	–
40.8	COc1ccc(CC(=O)NC2=NCC(Cc3ccccc3)N2CCC2CC3CCC2C3)cc1 (mixture of isomers) [2520.26]	–
36.0	CC(C)C(=O)NC1=NCC(Cc2ccccc2)N1CCC1CC2CCC1C2 (mixture of isomers) [2520.32]	–
34.4	COc1ccc(CC(=O)NC2=NCC(Cc3ccccc3)N2CCC(C)c2ccccc2)cc1 (mixture of isomers) [2520.34]	–
–	O=C(Cc1ccc(Br)cc1)NC1=NC[C@H](Cc2ccccc2)N1CCc1ccccc1 [1295.280]	42.0
–	COc1ccc(CC(=O)NC2=NC[C@H](Cc3ccccc3)N2CCc2ccccc2)cc1 [1295.281]	52.6
–	CCOc1ccc(CC(=O)NC2=NC[C@H](Cc3ccccc3)N2CCc2ccccc2)cc1 [1295.282]	-2.3
–	COc1ccc(CCC(=O)NC2=NC[C@H](Cc3ccccc3)N2CCc2ccccc2)cc1OC [1295.284]	34.0
–	O=C(Cc1ccc(-c2ccccc2)cc1)NC1=NC[C@H](Cc2ccccc2)N1CCc1ccccc1 [1295.285]	11.1
–	COc1ccc(CC(=O)NC2=NC[C@H](Cc3ccccc3)N2CCc2ccccc2)cc1OC [1295.287]	54.7
–	Cc1cccc(C(=O)NC2=NC[C@H](Cc3ccccc3)N2CCc2ccccc2)c1 [1295.288]	59.9
–	O=C(CCCc1ccccc1)NC1=NC[C@H](Cc2ccccc2)N1CCc1ccccc1 [1295.290]	60.2
–	O=C(Cc1ccccc1)NC1=NC[C@H](Cc2ccccc2)N1CCc1ccccc1 [1295.291]	5.6
–	CCc1ccc(-c2ccc(C(=O)NC3=NC[C@H](Cc4ccccc4)N3CCc3ccccc3)cc2)cc1 [1295.292]	48.3
–	CCCC(=O)NC1=NC[C@H](Cc2ccccc2)N1CCc1ccccc1 [1295.293]	37.4
–	CCCCCCC(=O)NC1=NC[C@H](Cc2ccccc2)N1CCc1ccccc1 [1295.294]	44.3
–	CC(C)C(=O)NC1=NC[C@H](Cc2ccccc2)N1CCc1ccccc1 [1295.295]	31.3
–	CC(C)CCC(=O)NC1=NC[C@H](Cc2ccccc2)N1CCc1ccccc1 [1295.297]	62.2
–	CC(=O)NC1=NC[C@H](Cc2ccccc2)N1CCc1ccccc1 [1295.301]	15.4
–	O=C(NC1=NC[C@H](Cc2ccccc2)N1CCc1ccccc1)C1CCC1 [1295.302]	24.7
–	O=C(NC1=NC[C@H](Cc2ccccc2)N1CCc1ccccc1)C1CCCC1 [1295.303]	3.3
–	O=C(CCC1CCCC1)NC1=NC[C@H](Cc2ccccc2)N1CCc1ccccc1 [1295.304]	45.5
